Reference: PubChem BioAssay (NCI)
In brackets after ≈: the same amount, converted by molar mass.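 Following 48 hours of exposure in 96-well plates, responses at five concentrations were used to interpolate endpoints linearly. At the GI50, growth is halved. TGI: concentration producing complete growth inhibition.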

How the values were obtained:
Experiment in all cases: NCI tumour cell line growth inhibition, 48 h
[1] = system: CAKI-1 renal
[2] = system: HL-60(TB) leukemia
[3] = system: IGROV1 ovarian
[4] = system: LOX IMVI melanoma
[5] = system: M14 melanoma
[6] = system: MCF7 breast
[7] = system: MOLT-4 leukemia
[8] = system: OVCAR-5 ovarian
[9] = system: SNB-19 CNS
[10] = system: UO-31 renal

| Compound | TGI [1] | TGI [2] | TGI [3] | TGI [4] | TGI [5] | TGI [6] | TGI [7] | TGI [8] | TGI [9] | TGI [10] | GI50 [7] | GI50 [1] [µg/mL] | GI50 [2] [µg/mL] | GI50 [3] [µg/mL] | GI50 [4] [µg/mL] | GI50 [5] [µg/mL] | GI50 [6] [µg/mL] | GI50 [8] [µg/mL] | GI50 [9] [µg/mL] | GI50 [10] [µg/mL] |
| --- | --- | --- | --- | --- | --- | --- | --- | --- | --- | --- | --- | --- | --- | --- | --- | --- | --- | --- | --- | --- |
| COc1cc(C(C)O)c(S(=O)(=O)CC(C)O)nn1 (configuration not stated) | > 100 µM | > 100 µM | > 100 µM | > 100 µM | > 100 µM | > 100 µM | > 100 µM | > 100 µM | > 100 µM | > 100 µM |  |  |  |  |  |  |  |  |  |  |
| Cc1c2ccncc2cc2c1[nH]c1ccccc12 | 10.5 µM | 6.36 µM | 65.2 µM | 7.35 µM |  | 23.5 µM | 6.59 µM | 13.6 µM | 34.7 µM | 9.89 µM |  |  |  |  |  |  |  |  |  |  |
| CC(=O)OCC1OC(n2cc(F)c(=O)[nH]c2=O)C(NC(=O)OCc2ccccc2)C(OC(C)=O)C1OC(C)=O (configuration not stated) | > 100 µM | > 100 µM | > 100 µM | > 100 µM |  | > 100 µM | > 100 µM | > 100 µM | > 100 µM | > 100 µM |  |  |  |  |  |  |  |  |  |  |
| O=C(N/N=C/c1cc(Cl)cc(Cl)c1[O-])c1ccccc1O.O=C(N/N=C/c1cc(Cl)cc(Cl)c1[O-])c1ccccc1O.[Co+2] | 6.3 µM | 0.634 µM | 6.97 µM | 11.8 µM | 2.95 µM |  | 15.7 µM | 6.27 µM |  | 6.72 µM | 0.23 µM |  |  |  |  |  |  |  |  |  |
| CCP(=O)(CC)C(Cl)Cl | > 100 µM | > 100 µM | > 100 µM | > 100 µM | > 100 µM | > 100 µM | > 100 µM | > 100 µM | > 100 µM | > 100 µM |  |  |  |  |  |  |  |  |  |  |
| O=C1CC2CC3OC3[C@H]3c4cc5c(cc4C(=O)N1C23)OCO5 (some centres not stated) | > 100 µM | > 100 µM | > 100 µM | > 100 µM | > 100 µM |  | > 100 µM | > 100 µM | > 100 µM | > 100 µM |  |  |  |  |  |  |  |  |  |  |
| Nc1[nH]nc(Nc2ccc(Cl)cc2)c1P(=O)(c1ccccc1)c1ccccc1 | > 100 µM | 82.3 µM | 55.2 µM | > 100 µM | 54.6 µM | > 100 µM | > 100 µM | 45.6 µM | 92.4 µM | > 100 µM |  |  |  |  |  |  |  |  |  |  |
| CC(=O)c1c(C)nc(SSc2nc(C)c(C(C)=O)c(-c3ccc(Cl)cc3)c2C#N)c(C#N)c1-c1ccc(Cl)cc1 | > 150 µg/mL | > 150 µg/mL | > 150 µg/mL | > 150 µg/mL | > 150 µg/mL | > 150 µg/mL | > 150 µg/mL | > 150 µg/mL | > 150 µg/mL | > 150 µg/mL | 134 µg/mL | 62.7 (≈ 104 µM) | > 150 | 88.1 (≈ 146 µM) | 49.2 (≈ 81.6 µM) | 81.5 (≈ 135 µM) | > 150 | > 150 | 78.4 (≈ 130 µM) | 82 (≈ 136 µM) |
| CC(=O)Nc1ccc(C(=O)NN2C(=O)C(Cl)/C2=C/c2ccco2)cc1 (configuration not stated) |  | > 100 µM | > 100 µM |  |  |  | > 100 µM | > 100 µM | > 100 µM | > 100 µM |  |  |  |  |  |  |  |  |  |  |
